{"source": "patent US20230203014A1", "about": "“NOVEL F[…] FOR LABELING TUMOR TISSUE” (PROIMAGING, priority 2020, published 2023)", "key": {"[1]": {"system": "4T1-Dendra2 mammary tumors", "assay": "in vivo imaging of mammary tumors (fluorescence, IVIS Spectrum)", "set-up": "species or system mice", "conditions": "starting from 48 h post-injection", "source_text": "ICG (or indocyanine green / Infracyanine) is a fluorescent agent of the prior art, already approved for use in humans for evaluation of cardiac and hepatic function, as well as in ophthalmology, for retinal diseases. It is also undergoing evaluation in many clinical trials throughout the world for guidance of surgery during tumoral exereses, or mapping of the ganglia draining the tumors, by near infrared imaging. ICG was compared with compound (2) according to the invention, synthesis of which is described above in example 2; this compound is called CJ215 in this study.\nThe study included 30 mice in total, distributed in three groups. The tumoral grafts were all carried out with 50 000 cells 4T1-Dendra2 /20 µl injected in 2 mammary glands contralaterally for each of the mice. […]\nThe variation of the intensity of the fluorescence signals recorded for each of the biomarkers over time was evaluated from the microscopy image. The capacity of the two markers for producing a signal specifically localized to the tumor was assessed quantitatively by calculating the ratio of the specific signal associated with the tumor to the nonspecific signal in the surrounding tissues. […]\nThe quantitative measurements were performed on the raw images, which had not been deconvoluted. […]"}, "[2]": {"system": "orthotopic pancreatic adenocarcinoma", "assay": "ex vivo fluorescence imaging of pancreatic tumors", "format": "in vivo, mouse", "conditions": "control dye", "experimental": "A model of orthotopic pancreatic adenocarcinoma in the mouse was developed. The tumoral cells were amplified subcutaneously in SCID mice and the resultant fragments were then implanted surgically in the pancreas of irradiated BALB/c nude mice.\nThe development of the tumor was monitored in vivo by MRI (4.7T, PharmaScan, Bruker Biospin) at three time points, D14, 28 and 36. The animals were subjected to […] in order to minimize autofluorescence. Fluorescent imaging was performed with a charge-coupled device (CCD) camera (PhotonRT, BiospaceLab) with excitation at 700 nm and an emission filter at 770 nm.\nAfter sessions of in vivo imaging performed at 2 h, 48 h and 164 h, ex vivo fluorescent images were acquired. The fluorescent compounds according to the invention 2 (CJ215) and CJ319 (the structure of which is detailed below) were injected intravenously at 2 mg/kg, 39 days after implantation of the tumor fragments, whereas the average volumes of the tumors were about 70 mm^3. Indocyanine green (ICG), a dye widely used in the per-operative imaging of tumors, was included as a control."}}}
{"smiles": "CC1(C)C(/C=C/C=C/C=C/C=C2\\N(CCCCS(=O)(=O)O)c3ccc4ccccc4c3C2(C)C)=[N+](CCCCS(=O)(=O)[O-])c2ccc3ccccc3c21", "note": "[ICG, indocyanine green]", "values": [{"measurement": "observability of the fluorescent signal in the tumors", "setting": "[1]", "result": "no longer observable in the tumors"}, {"measurement": "specific accumulation in the pancreas or the tumor", "setting": "[2]", "result": "did not show any specific accumulation"}]}
